Assay results reported in ChEMBL document CHEMBL1926681, “Novel inhibitors of epidermal growth factor receptor: (4-(Arylamino)-7H-pyrrolo[2,3-d]pyrimidin-6-yl)(1H-indol-2-yl)methanones and (1H-indol-2-yl)(4-(phenylamino)thieno[2,3-d]pyrimidin-6-yl)methanones” (Bioorg Med Chem, 2012).
The source made the active and inactive calls. No cut-off for these calls is given here.

Key:
[1] = Cytotoxicity against human LXFL 1121L cells after 4 days by propidium iodide staining-based fluorometric analysis; format: functional, cell-based; conditions: 96 h
PANC-1 = test: Cytotoxicity against human PANC1 cells after 4 days by propidium iodide staining-based fluorometric analysis; format: functional, cell-based; conditions: PANC-1, 96 h
[2] = Cytotoxicity against human LXFA 526L cells after 4 days by propidium iodide staining-based fluorometric analysis; format: functional, cell-based; conditions: 96 h
[3] = target: T1, Epidermal growth factor receptor (Homo sapiens, UniProt P00533); test: Inhibition of EGFR using poly(Glu,Tyr)4:1 as substrate and [gamma33P]ATP after 60 mins by scintillation counting
LNCaP = test: Cytotoxicity against human LNCAP cells after 4 days by propidium iodide staining-based fluorometric analysis; format: functional, cell-based; conditions: 96 h
[4] = Cytotoxicity against human PC3M cells after 4 days by propidium iodide staining-based fluorometric analysis; format: functional, cell-based; conditions: PC-3M, 96 h
SAOS-2 = test: Cytotoxicity against human Saos2 cells after 4 days by propidium iodide staining-based fluorometric analysis; format: functional, cell-based; conditions: SAOS-2, 96 h
[5] = Cytotoxicity against human RXF 1781L cells after 4 days by propidium iodide staining-based fluorometric analysis; format: functional, cell-based; conditions: 96 h
[6] = target: T1, Epidermal growth factor receptor; test: Inhibition of EGFR using poly(Glu,Tyr)4:1 as substrate and [gamma33P]ATP at 1 uM after 60 mins by scintillation counting
MCF7 = test: Cytotoxicity against human MCF7 cells after 4 days by propidium iodide staining-based fluorometric analysis; format: functional, cell-based; conditions: MCF7, 96 h
NCI-H460 = test: Cytotoxicity against human H460 cells after 4 days by propidium iodide staining-based fluorometric analysis; format: functional, cell-based; conditions: NCI-H460, 96 h
[7] = Cytotoxicity against human PXF 1752L cells after 4 days by propidium iodide staining-based fluorometric analysis; format: functional, cell-based; conditions: 96 h
OVCAR-3 = test: Cytotoxicity against human OVCAR3 cells after 4 days by propidium iodide staining-based fluorometric analysis; format: functional, cell-based; conditions: OVCAR-3, 96 h
[8] = Cytotoxicity against human BXF 1352L cells after 4 days by propidium iodide staining-based fluorometric analysis; format: functional, cell-based; conditions: 96 h
DU-145 = test: Cytotoxicity against human DU145 cells after 4 days by propidium iodide staining-based fluorometric analysis; format: functional, cell-based; conditions: DU-145, 96 h
[9] = Cytotoxicity against human OVXF 899L cells after 4 days by propidium iodide staining-based fluorometric analysis; format: functional, cell-based; conditions: 96 h
MKN-45 = test: Cytotoxicity against human MKN45 cells after 4 days by propidium iodide staining-based fluorometric analysis; format: functional, cell-based; conditions: MKN-45, 96 h
[10] = Cytotoxicity against human MDA231 cells after 4 days by propidium iodide staining-based fluorometric analysis; format: functional, cell-based; conditions: MDA-MB-231, 96 h
[11] = Cytotoxicity against human BXF 1218L cells after 4 days by propidium iodide staining-based fluorometric analysis; format: functional, cell-based; conditions: 96 h
TE-671 = test: Cytotoxicity against human TE671 cells after 4 days by propidium iodide staining-based fluorometric analysis; format: functional, cell-based; conditions: TE-671, 96 h
[12] = Cytotoxicity against human GXF251L cells after 4 days by propidium iodide staining-based fluorometric analysis; format: functional, cell-based; conditions: GXF 251L, 96 h
[13] = Cytotoxicity against human MEXF 462NL cells after 4 days by propidium iodide staining-based fluorometric analysis; format: functional, cell-based; conditions: 96 h
[14] = Cytotoxicity against human LIXF 575L cells after 4 days by propidium iodide staining-based fluorometric analysis; format: functional, cell-based; conditions: 96 h
[15] = Cytotoxicity against human MAXF 401NL cells after 4 days by propidium iodide staining-based fluorometric analysis; format: functional, cell-based; conditions: 96 h
[16] = Cytotoxicity against human BXF T24 cells after 4 days by propidium iodide staining-based fluorometric analysis; format: functional, cell-based; conditions: T-24, 96 h
RKO = test: Cytotoxicity against human RKO cells after 4 days by propidium iodide staining-based fluorometric analysis; format: functional, cell-based; conditions: 96 h
[17] = Cytotoxicity against human MEXF 1341L cells after 4 days by propidium iodide staining-based fluorometric analysis; format: functional, cell-based; conditions: 96 h
[18] = Cytotoxicity against human PXF 1118L cells after 4 days by propidium iodide staining-based fluorometric analysis; format: functional, cell-based; conditions: 96 h
CAL-27 = test: Cytotoxicity against human CAL27 cells after 4 days by propidium iodide staining-based fluorometric analysis; format: functional, cell-based; conditions: CAL-27, 96 h
[19] = target: Vascular endothelial growth factor receptor 2 (Homo sapiens) (UniProt P35968); test: Inhibition of VEGFR2 using poly(Glu,Tyr)4:1 as substrate and [gamma33P]ATP at 1 uM after 60 mins by scintillation counting
[20] = Cytotoxicity against human LXFA 289L cells after 4 days by propidium iodide staining-based fluorometric analysis; format: functional, cell-based; conditions: 96 h
[21] = Cytotoxicity against human RXF 393NL cells after 4 days by propidium iodide staining-based fluorometric analysis; format: functional, cell-based; conditions: 96 h
[22] = Cytotoxicity against human RXF 486L cells after 4 days by propidium iodide staining-based fluorometric analysis; format: functional, cell-based; conditions: 96 h
HCT-116 = test: Cytotoxicity against human HCT116 cells after 4 days by propidium iodide staining-based fluorometric analysis; format: functional, cell-based; conditions: HCT-116, 96 h
[23] = Cytotoxicity against human LXFA 629L cells after 4 days by propidium iodide staining-based fluorometric analysis; format: functional, cell-based; conditions: 96 h
[24] = Cytotoxicity against human MEXF 276L cells after 4 days by propidium iodide staining-based fluorometric analysis; format: functional, cell-based; conditions: MEXF276L, 96 h
[25] = target: Tyrosine-protein kinase ABL1 (Homo sapiens) (UniProt P00519); test: Inhibition of ABL1 using poly(Ala, Glu, Lys, Tyr) as substrate and [gamma33P]ATP at 1 uM after 60 mins by scintillation counting
[26] = Cytotoxicity against human LXFL 529L cells after 4 days by propidium iodide staining-based fluorometric analysis; format: functional, cell-based; conditions: 96 h
[27] = Cytotoxicity against human UXF 1138L cells after 4 days by propidium iodide staining-based fluorometric analysis; format: functional, cell-based; conditions: 96 h
[28] = Cytotoxicity against human PAXF 1657L cells after 4 days by propidium iodide staining-based fluorometric analysis; format: functional, cell-based; conditions: 96 h
[29] = target: Receptor tyrosine-protein kinase erbB-2 (Homo sapiens) (UniProt P04626); test: Inhibition of Erbb2 using poly(Glu,Tyr)4:1 as substrate and [gamma33P]ATP at 1 uM after 60 mins by scintillation counting
[30] = Cytotoxicity against human CXF 269L cells after 4 days by propidium iodide staining-based fluorometric analysis; format: functional, cell-based; conditions: 96 h
[31] = Cytotoxicity against human PAXF 546L cells after 4 days by propidium iodide staining-based fluorometric analysis; format: functional, cell-based; conditions: 96 h
[32] = Cytotoxicity against human DIFI cells after 4 days by propidium iodide staining-based fluorometric analysis; format: functional, cell-based; conditions: 96 h
[33] = target: Hepatocyte growth factor receptor (Homo sapiens) (UniProt P08581); test: Inhibition of MET using poly(Ala, Glu, Lys, Tyr) as substrate and [gamma33P]ATP at 1 uM after 60 mins by scintillation counting
[34] = Cytotoxicity against human PXF 698L cells after 4 days by propidium iodide staining-based fluorometric analysis; format: functional, cell-based; conditions: 96 h
HT-29 = test: Cytotoxicity against human HT-29 cells after 4 days by propidium iodide staining-based fluorometric analysis; format: functional, cell-based; conditions: HT-29, 96 h
CWR22R = test: Cytotoxicity against human 22Rv1 cells after 4 days by propidium iodide staining-based fluorometric analysis; format: functional, cell-based; conditions: 22Rv1, 96 h

Sequence of Tyrosine-protein kinase ABL1 (Homo sapiens) (P00519 whole entry): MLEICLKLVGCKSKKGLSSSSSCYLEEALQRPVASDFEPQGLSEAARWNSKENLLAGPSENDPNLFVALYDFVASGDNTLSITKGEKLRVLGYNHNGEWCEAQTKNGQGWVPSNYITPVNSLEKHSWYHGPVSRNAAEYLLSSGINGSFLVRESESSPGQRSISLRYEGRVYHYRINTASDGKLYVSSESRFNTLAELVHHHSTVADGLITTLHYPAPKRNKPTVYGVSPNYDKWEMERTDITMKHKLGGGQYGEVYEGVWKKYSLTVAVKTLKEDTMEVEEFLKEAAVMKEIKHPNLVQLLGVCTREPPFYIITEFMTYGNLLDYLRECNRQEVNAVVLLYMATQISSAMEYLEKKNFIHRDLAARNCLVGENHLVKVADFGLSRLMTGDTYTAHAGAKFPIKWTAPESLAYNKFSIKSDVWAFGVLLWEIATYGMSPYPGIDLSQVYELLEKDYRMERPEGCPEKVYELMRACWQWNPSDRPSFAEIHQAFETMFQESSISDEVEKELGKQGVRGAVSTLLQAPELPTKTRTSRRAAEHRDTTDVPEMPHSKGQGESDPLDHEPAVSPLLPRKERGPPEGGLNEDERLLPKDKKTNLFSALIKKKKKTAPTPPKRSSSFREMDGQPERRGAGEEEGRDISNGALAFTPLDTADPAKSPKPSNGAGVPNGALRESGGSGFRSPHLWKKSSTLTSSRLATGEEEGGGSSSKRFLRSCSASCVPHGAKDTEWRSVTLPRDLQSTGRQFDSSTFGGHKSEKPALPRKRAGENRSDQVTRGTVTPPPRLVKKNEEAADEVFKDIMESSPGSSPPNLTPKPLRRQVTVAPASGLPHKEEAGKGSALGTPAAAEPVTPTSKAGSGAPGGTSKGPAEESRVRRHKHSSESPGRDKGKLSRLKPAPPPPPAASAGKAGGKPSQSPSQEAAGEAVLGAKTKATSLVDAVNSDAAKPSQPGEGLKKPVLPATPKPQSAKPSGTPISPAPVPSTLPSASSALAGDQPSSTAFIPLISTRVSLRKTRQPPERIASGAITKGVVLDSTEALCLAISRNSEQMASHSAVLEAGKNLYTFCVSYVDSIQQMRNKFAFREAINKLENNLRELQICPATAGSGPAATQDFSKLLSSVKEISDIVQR
T1 sequence (P00533 whole entry): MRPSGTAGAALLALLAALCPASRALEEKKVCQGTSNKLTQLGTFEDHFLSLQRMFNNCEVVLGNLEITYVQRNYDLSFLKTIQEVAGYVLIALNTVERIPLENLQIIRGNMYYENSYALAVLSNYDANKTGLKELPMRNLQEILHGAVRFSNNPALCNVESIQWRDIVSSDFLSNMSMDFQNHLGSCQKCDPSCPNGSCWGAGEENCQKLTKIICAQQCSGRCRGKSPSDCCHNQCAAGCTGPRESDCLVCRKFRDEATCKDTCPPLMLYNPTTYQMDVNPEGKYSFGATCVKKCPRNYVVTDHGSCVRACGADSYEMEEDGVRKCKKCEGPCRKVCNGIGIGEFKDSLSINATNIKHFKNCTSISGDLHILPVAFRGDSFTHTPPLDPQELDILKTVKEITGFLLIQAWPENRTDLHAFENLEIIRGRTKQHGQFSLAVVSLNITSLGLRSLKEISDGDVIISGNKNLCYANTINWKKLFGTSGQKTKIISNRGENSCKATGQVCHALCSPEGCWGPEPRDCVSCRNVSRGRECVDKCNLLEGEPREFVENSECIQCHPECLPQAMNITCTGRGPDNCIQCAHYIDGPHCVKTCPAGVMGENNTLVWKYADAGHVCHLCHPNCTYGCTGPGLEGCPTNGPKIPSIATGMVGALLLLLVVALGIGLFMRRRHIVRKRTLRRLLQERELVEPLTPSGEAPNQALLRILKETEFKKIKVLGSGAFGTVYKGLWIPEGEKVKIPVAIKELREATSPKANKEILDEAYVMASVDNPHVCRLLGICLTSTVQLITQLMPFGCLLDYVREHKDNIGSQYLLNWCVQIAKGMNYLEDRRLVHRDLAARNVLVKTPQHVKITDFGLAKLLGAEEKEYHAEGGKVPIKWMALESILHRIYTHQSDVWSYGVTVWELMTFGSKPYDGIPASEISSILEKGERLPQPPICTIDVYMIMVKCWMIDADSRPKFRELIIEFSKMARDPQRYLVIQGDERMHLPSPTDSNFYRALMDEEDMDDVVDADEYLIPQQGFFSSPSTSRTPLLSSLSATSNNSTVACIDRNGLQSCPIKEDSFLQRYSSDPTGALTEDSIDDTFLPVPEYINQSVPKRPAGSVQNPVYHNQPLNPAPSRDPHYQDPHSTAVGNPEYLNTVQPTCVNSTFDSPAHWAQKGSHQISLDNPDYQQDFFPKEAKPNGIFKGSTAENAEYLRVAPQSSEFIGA
Sequence of Hepatocyte growth factor receptor (Homo sapiens) (P08581 whole entry): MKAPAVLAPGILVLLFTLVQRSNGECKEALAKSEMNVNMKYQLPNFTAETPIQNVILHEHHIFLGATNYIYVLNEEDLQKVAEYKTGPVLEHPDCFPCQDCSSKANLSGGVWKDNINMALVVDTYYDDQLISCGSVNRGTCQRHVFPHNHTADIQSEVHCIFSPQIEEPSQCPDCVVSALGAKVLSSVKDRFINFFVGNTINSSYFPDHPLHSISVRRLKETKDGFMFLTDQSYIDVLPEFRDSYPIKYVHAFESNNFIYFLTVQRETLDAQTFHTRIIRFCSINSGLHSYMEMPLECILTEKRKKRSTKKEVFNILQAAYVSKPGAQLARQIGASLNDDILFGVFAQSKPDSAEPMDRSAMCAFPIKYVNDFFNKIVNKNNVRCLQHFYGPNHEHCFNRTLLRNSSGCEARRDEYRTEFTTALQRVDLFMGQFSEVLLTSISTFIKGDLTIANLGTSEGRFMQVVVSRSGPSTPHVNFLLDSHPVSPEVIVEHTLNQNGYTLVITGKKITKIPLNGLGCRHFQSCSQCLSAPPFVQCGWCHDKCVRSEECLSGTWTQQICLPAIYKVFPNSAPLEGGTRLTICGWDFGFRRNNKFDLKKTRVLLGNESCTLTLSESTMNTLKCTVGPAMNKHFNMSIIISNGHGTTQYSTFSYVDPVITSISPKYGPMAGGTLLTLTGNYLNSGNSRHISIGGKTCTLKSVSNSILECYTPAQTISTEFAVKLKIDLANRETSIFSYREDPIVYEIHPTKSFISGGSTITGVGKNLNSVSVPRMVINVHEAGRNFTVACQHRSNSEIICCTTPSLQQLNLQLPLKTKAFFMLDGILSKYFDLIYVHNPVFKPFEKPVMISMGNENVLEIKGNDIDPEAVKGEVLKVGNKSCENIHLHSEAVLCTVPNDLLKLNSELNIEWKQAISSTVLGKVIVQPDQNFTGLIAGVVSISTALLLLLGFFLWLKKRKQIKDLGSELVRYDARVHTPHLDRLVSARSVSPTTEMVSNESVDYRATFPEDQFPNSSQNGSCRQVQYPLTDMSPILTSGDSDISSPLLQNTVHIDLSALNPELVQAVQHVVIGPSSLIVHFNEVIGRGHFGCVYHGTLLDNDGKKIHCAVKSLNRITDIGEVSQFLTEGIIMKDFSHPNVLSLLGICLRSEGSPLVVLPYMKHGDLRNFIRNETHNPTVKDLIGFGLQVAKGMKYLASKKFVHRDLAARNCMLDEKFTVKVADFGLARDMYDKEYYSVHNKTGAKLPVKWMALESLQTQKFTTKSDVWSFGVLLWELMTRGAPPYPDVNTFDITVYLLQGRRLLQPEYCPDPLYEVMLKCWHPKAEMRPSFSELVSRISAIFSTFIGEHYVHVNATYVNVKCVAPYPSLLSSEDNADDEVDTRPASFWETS
Sequence of Receptor tyrosine-protein kinase erbB-2 (Homo sapiens) (P04626 whole entry): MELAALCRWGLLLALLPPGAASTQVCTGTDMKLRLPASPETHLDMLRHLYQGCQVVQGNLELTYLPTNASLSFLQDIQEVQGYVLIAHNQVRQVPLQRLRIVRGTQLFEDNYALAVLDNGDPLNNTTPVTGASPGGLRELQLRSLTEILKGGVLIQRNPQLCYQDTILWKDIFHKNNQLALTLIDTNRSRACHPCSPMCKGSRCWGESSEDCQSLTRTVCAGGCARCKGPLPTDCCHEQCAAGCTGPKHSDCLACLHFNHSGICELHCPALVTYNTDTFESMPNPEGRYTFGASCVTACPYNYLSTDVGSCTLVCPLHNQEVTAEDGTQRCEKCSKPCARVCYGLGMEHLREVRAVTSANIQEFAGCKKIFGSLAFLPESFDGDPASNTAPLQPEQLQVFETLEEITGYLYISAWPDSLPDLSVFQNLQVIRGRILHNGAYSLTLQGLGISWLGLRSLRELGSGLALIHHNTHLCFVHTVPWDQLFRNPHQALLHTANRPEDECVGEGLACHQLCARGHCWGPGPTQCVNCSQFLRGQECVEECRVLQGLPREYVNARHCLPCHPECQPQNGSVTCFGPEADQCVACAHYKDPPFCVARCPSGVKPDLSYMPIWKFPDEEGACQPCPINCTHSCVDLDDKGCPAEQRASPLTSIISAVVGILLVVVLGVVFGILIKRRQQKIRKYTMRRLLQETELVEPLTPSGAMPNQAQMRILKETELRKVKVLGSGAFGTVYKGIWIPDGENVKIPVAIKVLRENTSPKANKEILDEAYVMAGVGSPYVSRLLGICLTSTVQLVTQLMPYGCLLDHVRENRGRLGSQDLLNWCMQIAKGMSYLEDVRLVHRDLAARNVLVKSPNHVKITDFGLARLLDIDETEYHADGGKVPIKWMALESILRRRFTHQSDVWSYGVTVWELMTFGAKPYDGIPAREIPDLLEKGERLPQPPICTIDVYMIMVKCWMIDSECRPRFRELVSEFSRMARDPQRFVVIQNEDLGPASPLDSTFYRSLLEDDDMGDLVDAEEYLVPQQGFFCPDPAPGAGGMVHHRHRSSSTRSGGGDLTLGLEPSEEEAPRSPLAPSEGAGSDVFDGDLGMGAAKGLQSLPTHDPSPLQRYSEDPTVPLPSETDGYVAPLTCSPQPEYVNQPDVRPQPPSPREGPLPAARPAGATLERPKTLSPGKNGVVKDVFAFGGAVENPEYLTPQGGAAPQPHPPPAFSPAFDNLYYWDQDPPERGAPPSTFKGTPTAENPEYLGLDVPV

## COc1ccc2[nH]c(C(=O)c3cc4c(Nc5ccc(F)c(Cl)c5)ncnc4s3)cc2c1
[1]
  IC50: 9 µM
PANC-1
  IC50: 28.4 µM
[2]
  IC50: 28.5 µM
[3]
  IC50: 0.00593 µM
LNCaP
  IC50: 32.5 µM
[4]
  IC50: 46.3 µM
SAOS-2; read-out: IC50
  IC50: 30.1 µM
[5]
  IC50: 30.4 µM
[6]
  inhibition: 96%
MCF7
  IC50: 11.3 µM
NCI-H460
  IC50: 15 µM
[7]
  IC50: 36 µM
OVCAR-3
  IC50: 24.6 µM
[8]
  IC50: 24.8 µM
DU-145
  IC50: 19.4 µM
[9]
  IC50: 19 µM
MKN-45
  IC50: 38.2 µM
[10]
  IC50: 17.1 µM
[11]
  IC50: 15.4 µM
TE-671
  IC50: 55 µM
[12]
  IC50: 3.9 µM
[13]
  IC50: 16.7 µM
[14]
  IC50: 9.3 µM
[15]
  IC50: 4.2 µM
[16]
  IC50: 17.8 µM
RKO
  IC50: 15.8 µM
[17]
  IC50: 14.4 µM
[18]
  IC50: 62.9 µM
CAL-27
  IC50: 1.6 µM
[19]
  inhibition: 55%
[20]
  IC50: 7.1 µM
[21]
  IC50: 21.1 µM
[22]
  IC50: 10.2 µM
HCT-116
  IC50: 12.1 µM
[23]
  IC50: 5 µM
[24]
  IC50: 31 µM
[25]
  inhibition: inactive
[26]
  IC50: 14.8 µM
[27]
  IC50: 4.9 µM
[28]
  IC50: 24.6 µM
[29]
  inhibition: 60%
[30]
  IC50: 11.7 µM
[31]
  IC50: 14.1 µM
[32]
  IC50: 1 µM
[33]
  inhibition: inactive
[34]
  IC50: 26.7 µM
HT-29
  IC50: 9.8 µM
CWR22R
  IC50: 11.1 µM

## C#Cc1cccc(Nc2ncnc3cc(OCCOC)c(OCCOC)cc23)c1 [ERLOTINIB]
[1]
  IC50: 34.6 µM
PANC-1
  IC50: 75.8 µM
[2]
  IC50: 100 µM
LNCaP
  IC50: 6.63 µM
[4]
  IC50: 17.2 µM
SAOS-2
  IC50: 21 µM
[5]
  IC50: 76.7 µM
MCF7
  IC50: 100 µM
NCI-H460
  IC50: 74.3 µM
[7]
  IC50: 31.6 µM
OVCAR-3
  IC50: 100 µM
[8]
  IC50: 87.8 µM
DU-145
  IC50: 0.966 µM
[9]
  IC50: 8.77 µM
MKN-45
  IC50: 76.7 µM
[10]
  IC50: 34.5 µM
[11]
  IC50: 96 µM
TE-671
  IC50: 100 µM
[12]
  IC50: 0.369 µM
[13]
  IC50: 100 µM
[14]
  IC50: 47.2 µM
[15]
  IC50: 25 µM
[16]
  IC50: 13.9 µM
RKO
  IC50: 100 µM
[17]
  IC50: 30.1 µM
[18]
  IC50: 76.7 µM
CAL-27
  IC50: 0.239 µM
[20]
  IC50: 1.78 µM
[21]
  IC50: 45.6 µM
[22]
  IC50: 10 µM
HCT-116
  IC50: 65.8 µM
[23]
  IC50: 0.66 µM
[24]
  IC50: 18.6 µM
[25]
  inhibition: inactive
[26]
  IC50: 17.4 µM
[27]
  IC50: 24.5 µM
[28]
  IC50: 64.3 µM
[30]
  IC50: 16 µM
[31]
  IC50: 10 µM
[32]
  IC50: 0.14 µM
[33]
  inhibition: inactive
[34]
  IC50: 36.4 µM
HT-29
  IC50: 100 µM
CWR22R
  IC50: 100 µM
